Assay results taken from the NIST ThermoML archive (doi:10.1016/j.jct.2015.08.014).
Numbers after ± are expanded uncertainties.

Assay: xn = mol fraction of the nth substance listed
Settings: 323.15 K, 100 kPa, Liquid, Alternating current cell with electrodes

## CCCC[N+]1(C)CCCC1.N#CN=C=[N-] [1-butyl-1-methylpyrrolidinium dicyanamide] + O=C1CCCO1
Frequency=0.001 MHz, x1 = 0.0987
  electrical conductivity: 3.06 ± 0.039 S/m
Frequency=0.001 MHz, x1 = 0.1449
  electrical conductivity: 3.56 ± 0.038 S/m
Frequency=0.001 MHz, x1 = 0.1859
  electrical conductivity: 3.83 ± 0.039 S/m
Frequency=0.001 MHz, x1 = 0.2493
  electrical conductivity: 3.89 ± 0.039 S/m
Frequency=0.001 MHz, x1 = 0.3029
  electrical conductivity: 3.86 ± 0.039 S/m
Frequency=0.001 MHz, x1 = 0.3845
  electrical conductivity: 3.732 ± 0.037 S/m
Frequency=0.001 MHz, x1 = 0.4985
  electrical conductivity: 3.46 ± 0.035 S/m
Frequency=0.001 MHz, x1 = 0.6954
  electrical conductivity: 2.99 ± 0.03 S/m
Frequency=0.001 MHz, x1 = 0.9013
  electrical conductivity: 2.626 ± 0.026 S/m
Frequency=0.001 MHz, x1 = 1
  electrical conductivity: 2.526 ± 0.025 S/m
Frequency=0.0015 MHz, x1 = 0.0463
  electrical conductivity: 2 ± 0.037 S/m
Frequency=0.0015 MHz, x1 = 0.0987
  electrical conductivity: 3.07 ± 0.039 S/m
Frequency=0.0015 MHz, x1 = 0.1449
  electrical conductivity: 3.56 ± 0.038 S/m
Frequency=0.0015 MHz, x1 = 0.1859
  electrical conductivity: 3.84 ± 0.039 S/m
Frequency=0.0015 MHz, x1 = 0.2493
  electrical conductivity: 3.89 ± 0.039 S/m
Frequency=0.0015 MHz, x1 = 0.3029
  electrical conductivity: 3.87 ± 0.039 S/m
Frequency=0.0015 MHz, x1 = 0.3845
  electrical conductivity: 3.73 ± 0.038 S/m
Frequency=0.0015 MHz, x1 = 0.4985
  electrical conductivity: 3.46 ± 0.035 S/m
Frequency=0.0015 MHz, x1 = 0.6954
  electrical conductivity: 2.99 ± 0.03 S/m
Frequency=0.0015 MHz, x1 = 0.9013
  electrical conductivity: 2.628 ± 0.026 S/m
Frequency=0.0015 MHz, x1 = 1
  electrical conductivity: 2.527 ± 0.025 S/m
Frequency=0.002 MHz, x1 = 0.0463
  electrical conductivity: 2 ± 0.037 S/m
Frequency=0.002 MHz, x1 = 0.0987
  electrical conductivity: 3.07 ± 0.039 S/m
Frequency=0.002 MHz, x1 = 0.1449
  electrical conductivity: 3.56 ± 0.038 S/m
Frequency=0.002 MHz, x1 = 0.1859
  electrical conductivity: 3.84 ± 0.039 S/m
Frequency=0.002 MHz, x1 = 0.2493
  electrical conductivity: 3.89 ± 0.039 S/m
Frequency=0.002 MHz, x1 = 0.3029
  electrical conductivity: 3.87 ± 0.039 S/m
Frequency=0.002 MHz, x1 = 0.3845
  electrical conductivity: 3.74 ± 0.038 S/m
Frequency=0.002 MHz, x1 = 0.4985
  electrical conductivity: 3.46 ± 0.035 S/m
Frequency=0.002 MHz, x1 = 0.6954
  electrical conductivity: 2.99 ± 0.03 S/m
Frequency=0.002 MHz, x1 = 0.9013
  electrical conductivity: 2.63 ± 0.026 S/m
Frequency=0.002 MHz, x1 = 1
  electrical conductivity: 2.528 ± 0.025 S/m
Frequency=0.0025 MHz, x1 = 0.0463
  electrical conductivity: 2.01 ± 0.037 S/m
Frequency=0.0025 MHz, x1 = 0.0987
  electrical conductivity: 3.07 ± 0.039 S/m
Frequency=0.0025 MHz, x1 = 0.1449
  electrical conductivity: 3.56 ± 0.038 S/m
Frequency=0.0025 MHz, x1 = 0.1859
  electrical conductivity: 3.85 ± 0.039 S/m
Frequency=0.0025 MHz, x1 = 0.2493
  electrical conductivity: 3.89 ± 0.039 S/m
Frequency=0.0025 MHz, x1 = 0.3029
  electrical conductivity: 3.87 ± 0.039 S/m
Frequency=0.0025 MHz, x1 = 0.3845
  electrical conductivity: 3.74 ± 0.038 S/m
Frequency=0.0025 MHz, x1 = 0.4985
  electrical conductivity: 3.46 ± 0.035 S/m
Frequency=0.0025 MHz, x1 = 0.6954
  electrical conductivity: 2.99 ± 0.03 S/m
Frequency=0.0025 MHz, x1 = 0.9013
  electrical conductivity: 2.63 ± 0.026 S/m
Frequency=0.0025 MHz, x1 = 1
  electrical conductivity: 2.528 ± 0.025 S/m
Frequency=0.003 MHz, x1 = 0.0463
  electrical conductivity: 2.01 ± 0.037 S/m
Frequency=0.003 MHz, x1 = 0.0987
  electrical conductivity: 3.08 ± 0.039 S/m
Frequency=0.003 MHz, x1 = 0.1449
  electrical conductivity: 3.56 ± 0.038 S/m
Frequency=0.003 MHz, x1 = 0.1859
  electrical conductivity: 3.85 ± 0.039 S/m
Frequency=0.003 MHz, x1 = 0.2493
  electrical conductivity: 3.89 ± 0.039 S/m
Frequency=0.003 MHz, x1 = 0.3029
  electrical conductivity: 3.87 ± 0.039 S/m
Frequency=0.003 MHz, x1 = 0.3845
  electrical conductivity: 3.74 ± 0.038 S/m
Frequency=0.003 MHz, x1 = 0.4985
  electrical conductivity: 3.46 ± 0.035 S/m
Frequency=0.003 MHz, x1 = 0.6954
  electrical conductivity: 2.99 ± 0.03 S/m
Frequency=0.003 MHz, x1 = 0.9013
  electrical conductivity: 2.631 ± 0.026 S/m
Frequency=0.003 MHz, x1 = 1
  electrical conductivity: 2.528 ± 0.025 S/m
Frequency=0.00347222 MHz, x1 = 0.0463
  electrical conductivity: 2.01 ± 0.037 S/m
Frequency=0.00347222 MHz, x1 = 0.0987
  electrical conductivity: 3.08 ± 0.039 S/m
Frequency=0.00347222 MHz, x1 = 0.1449
  electrical conductivity: 3.57 ± 0.038 S/m
Frequency=0.00347222 MHz, x1 = 0.1859
  electrical conductivity: 3.85 ± 0.039 S/m
Frequency=0.00347222 MHz, x1 = 0.2493
  electrical conductivity: 3.89 ± 0.039 S/m
Frequency=0.00347222 MHz, x1 = 0.3029
  electrical conductivity: 3.87 ± 0.039 S/m
Frequency=0.00347222 MHz, x1 = 0.3845
  electrical conductivity: 3.74 ± 0.038 S/m
Frequency=0.00347222 MHz, x1 = 0.4985
  electrical conductivity: 3.46 ± 0.035 S/m
Frequency=0.00347222 MHz, x1 = 0.6954
  electrical conductivity: 2.99 ± 0.03 S/m
Frequency=0.00347222 MHz, x1 = 0.9013
  electrical conductivity: 2.632 ± 0.026 S/m
Frequency=0.00347222 MHz, x1 = 1
  electrical conductivity: 2.528 ± 0.025 S/m
Frequency=0.004 MHz, x1 = 0.0463
  electrical conductivity: 2.01 ± 0.037 S/m
Frequency=0.004 MHz, x1 = 0.0987
  electrical conductivity: 3.08 ± 0.039 S/m
Frequency=0.004 MHz, x1 = 0.1449
  electrical conductivity: 3.57 ± 0.038 S/m
Frequency=0.004 MHz, x1 = 0.1859
  electrical conductivity: 3.85 ± 0.039 S/m
Frequency=0.004 MHz, x1 = 0.2493
  electrical conductivity: 3.89 ± 0.039 S/m
Frequency=0.004 MHz, x1 = 0.3029
  electrical conductivity: 3.87 ± 0.039 S/m
Frequency=0.004 MHz, x1 = 0.3845
  electrical conductivity: 3.74 ± 0.038 S/m
Frequency=0.004 MHz, x1 = 0.4985
  electrical conductivity: 3.46 ± 0.035 S/m
Frequency=0.004 MHz, x1 = 0.6954
  electrical conductivity: 2.99 ± 0.03 S/m
Frequency=0.004 MHz, x1 = 0.9013
  electrical conductivity: 2.632 ± 0.026 S/m
Frequency=0.004 MHz, x1 = 1
  electrical conductivity: 2.529 ± 0.025 S/m
Frequency=0.00446429 MHz, x1 = 0.0463
  electrical conductivity: 2.01 ± 0.037 S/m
Frequency=0.00446429 MHz, x1 = 0.0987
  electrical conductivity: 3.08 ± 0.039 S/m
Frequency=0.00446429 MHz, x1 = 0.1449
  electrical conductivity: 3.57 ± 0.038 S/m
Frequency=0.00446429 MHz, x1 = 0.1859
  electrical conductivity: 3.85 ± 0.039 S/m
Frequency=0.00446429 MHz, x1 = 0.2493
  electrical conductivity: 3.89 ± 0.039 S/m
Frequency=0.00446429 MHz, x1 = 0.3029
  electrical conductivity: 3.87 ± 0.039 S/m
Frequency=0.00446429 MHz, x1 = 0.3845
  electrical conductivity: 3.74 ± 0.038 S/m
Frequency=0.00446429 MHz, x1 = 0.4985
  electrical conductivity: 3.46 ± 0.035 S/m
Frequency=0.00446429 MHz, x1 = 0.6954
  electrical conductivity: 2.99 ± 0.03 S/m
Frequency=0.00446429 MHz, x1 = 0.9013
  electrical conductivity: 2.632 ± 0.026 S/m
Frequency=0.00446429 MHz, x1 = 1
  electrical conductivity: 2.529 ± 0.025 S/m
Frequency=0.005 MHz, x1 = 0.0463
  electrical conductivity: 2.01 ± 0.037 S/m
Frequency=0.005 MHz, x1 = 0.0987
  electrical conductivity: 3.08 ± 0.039 S/m
Frequency=0.005 MHz, x1 = 0.1449
  electrical conductivity: 3.57 ± 0.038 S/m
Frequency=0.005 MHz, x1 = 0.1859
  electrical conductivity: 3.85 ± 0.039 S/m
Frequency=0.005 MHz, x1 = 0.2493
  electrical conductivity: 3.89 ± 0.039 S/m
Frequency=0.005 MHz, x1 = 0.3029
  electrical conductivity: 3.87 ± 0.039 S/m
Frequency=0.005 MHz, x1 = 0.3845
  electrical conductivity: 3.74 ± 0.038 S/m
Frequency=0.005 MHz, x1 = 0.4985
  electrical conductivity: 3.46 ± 0.035 S/m
Frequency=0.005 MHz, x1 = 0.6954
  electrical conductivity: 2.99 ± 0.03 S/m
Frequency=0.005 MHz, x1 = 0.9013
  electrical conductivity: 2.633 ± 0.026 S/m
Frequency=0.005 MHz, x1 = 1
  electrical conductivity: 2.529 ± 0.025 S/m
Frequency=0.005454 MHz, x1 = 0.0463
  electrical conductivity: 2.01 ± 0.037 S/m
Frequency=0.005454 MHz, x1 = 0.0987
  electrical conductivity: 3.08 ± 0.039 S/m
Frequency=0.005454 MHz, x1 = 0.1449
  electrical conductivity: 3.57 ± 0.038 S/m
Frequency=0.005454 MHz, x1 = 0.1859
  electrical conductivity: 3.85 ± 0.039 S/m
Frequency=0.005454 MHz, x1 = 0.2493
  electrical conductivity: 3.89 ± 0.039 S/m
Frequency=0.005454 MHz, x1 = 0.3029
  electrical conductivity: 3.88 ± 0.039 S/m
Frequency=0.005454 MHz, x1 = 0.3845
  electrical conductivity: 3.74 ± 0.038 S/m
Frequency=0.005454 MHz, x1 = 0.4985
  electrical conductivity: 3.46 ± 0.035 S/m
Frequency=0.005454 MHz, x1 = 0.6954
  electrical conductivity: 2.99 ± 0.03 S/m
